The results in this text go back to publication PMC6675120, “Potent and selective inhibitors for M32 metallocarboxypeptidases identified from high-throughput screening of anti-kinetoplastid chemical boxes” (PLoS Neglected Tropical Diseases, 2019).

Read-outs that look alike come from different tables or passages of the source.

The IC50 is the point on the concentration scale where inhibition reaches its midpoint. One may read the inhibition as the change of the read-out against control, counted positive when it falls.

The target of assay [1] is TbMCP-1 (Trypanosoma brucei, UniProt Q386R0). Nature of the assay: Continuous fluorogenic (FRET) TbMCP-1 assay with Abz-RFFK(Dnp)-OH, primary and secondary screening. In kind it is biochemical. The conditions noted are these: for TbMCP-1 Hill Slope: four-parameter Hill fit of dose-response curve; for TbMCP-1 2º/1º ratio: secondary (31,5 µM) / primary (25 µM) inhibition. On the procedure: (§1) TcMCP-1 (MEROPS ID: M32.003) and TbMCP-1 were expressed as GST fusion proteins in E. coli BL21 (DE3) Codon Plus and purified as previously described.
Chain of TbMCP-1 (Q386R0 entry or part of it): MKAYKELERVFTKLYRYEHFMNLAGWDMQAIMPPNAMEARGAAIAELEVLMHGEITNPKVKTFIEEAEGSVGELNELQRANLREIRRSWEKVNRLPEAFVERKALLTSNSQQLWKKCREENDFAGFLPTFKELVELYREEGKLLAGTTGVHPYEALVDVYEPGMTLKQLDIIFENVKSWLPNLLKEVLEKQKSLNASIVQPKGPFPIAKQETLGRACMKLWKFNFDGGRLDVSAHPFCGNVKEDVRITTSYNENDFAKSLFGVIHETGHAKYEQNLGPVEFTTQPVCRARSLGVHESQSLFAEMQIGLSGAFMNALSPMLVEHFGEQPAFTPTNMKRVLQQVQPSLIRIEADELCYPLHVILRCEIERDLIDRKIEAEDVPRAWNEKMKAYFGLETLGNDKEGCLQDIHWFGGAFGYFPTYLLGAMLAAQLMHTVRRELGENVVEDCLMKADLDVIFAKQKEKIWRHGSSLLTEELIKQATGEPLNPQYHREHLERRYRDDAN
(§2) TbMCP-1 and TcMCP-1 activities were assayed fluorometrically with Abz-RFFK(Dnp)-OH and Abz-LKFK(Dnp)-OH substrates, respectively, in 100 mM MOPS pH 7,2 containing 0,01% Triton X-100. Assays were performed in solid black 384-well plates (final reaction volume ~80 μL) and the hydrolysis of the K(Dnp)-OH group was monitored continuously at 30 °C with a Beckman Coulter DTX 880 Multimode Reader (Radnor, Pennsylvania, USA) using standard 320 nm excitation and 420 nm emission filter set.
(§3) In all cases, EDTA (final concentration 31,25 mM) was used as positive inhibition control.
(§4) Then, 40 μL of 100 mM MOPS, 0,01% Triton X-100 pH 7,2 containing TbMCP-1 (2,50 nM) or TcMCP-1 (0,34 nM) were added to each well, plates were homogenized (30 seg, orbital, medium intensity) and each well subjected to a single autofluorescence read (ex/em = 320/420 nm). Plates were incubated in darkness for 15 min at 30 °C and then 40 μL of Abz-RFFK(Dnp)-OH (4 μM) or Abz-LKFK(Dnp)-OH (0,8 μM) in assay buffer were added to each well to start the reaction. After homogenization (30 seg, orbital, medium intensity), the fluorescence of the Abz group (ortho-aminobenzoic acid) (ex/em = 320/420 nm) was acquired kinetically for each well (8 read cycles, one cycle every 300 seconds). Considering our previous experiences, the auto-fluorescent cut-off was arbitrarily set at 2x10^5 RFU to discard highly interfering compounds. All compounds were assayed in singlet (without replicates) due to the limited availability of stocks.
(§5) Raw screening measurements were used to determine the slope (dF/dt) of progression curves by linear regression for control and non-interfering compound wells. In the case of control-dependent hit selection criteria, percent inhibition percentage (%Inh) was calculated for each compound according to the following equation: Inh=100∙[1−(dF/dt^WELL−μ^C−)/(μ^C+−μ^C−)] (1) where dF/dt^WELL represents the slope of each compound well and μ^C+ and μ^C− the average of MCP (no-inhibition) and substrate (no-enzyme) controls, respectively.
(§6) To avoid any positional and/or association bias, we randomly defined the row position for each compound. One μL of compounds stock (10 mM in DMSO) and EDTA (31,25 mM) were added to the first well of column 1, followed by addition of 40 μL of 100 mM MOPS, 0,01% Triton X-100 pH 7,2 buffer. After addition of 20 μL of the same buffer to subsequent wells of the plate, 22 serial 2-fold dilutions were made horizontally. The last two positions of every row were used, alternatively, for C^+ and C^− controls to reduce any positional and/or association bias. Then, 20 μL of activity buffer containing TbMCP-1 or TcMCP-1 were added to each well, except for those corresponding to C^−; completed with 20 μL of activity buffer. After homogenization, 15 minutes of incubation at 30°C and autofluorescence measurement, the substrate (in activity buffer) was added to the previous mix. Data collection and processing were performed exactly as described above. Percentage of M32 MCPs residual activity was calculated for each condition according to the following equation: %Res.Act^MCP=100∙[(dF/dt^WELL−μ^C−)/(μ^C+−μ^C−)] (2) where dF/dt^WELL represents the slope of each compound well and μ^C+ and μ^C− the average of MCP (no-inhibition) and substrate (no-enzyme) controls, respectively.

In assay [2] the target is TcMCP-1 (Trypanosoma cruzi, UniProt Q6ZXC0). Kind of assay: Continuous fluorogenic (FRET) TcMCP-1 assay with Abz-LKFK(Dnp)-OH, primary and secondary screening. It counts as biochemical. The arrangement: inhibition: dose or concentration left out as unconfirmed. The conditions noted are these: for TcMCP-1 Hill Slope: four-parameter Hill fit of dose-response curve; for TcMCP-1 2º/1º ratio: secondary (31,5 µM) / primary (25 µM) inhibition; for TcMCP-1 Secondary screening Inhibition (%): single inhibitor concentration 31,5 µM. The procedure: as §1, §2, §3, §4, §5
Chain of TcMCP-1 (Q6ZXC0 entry or part of it): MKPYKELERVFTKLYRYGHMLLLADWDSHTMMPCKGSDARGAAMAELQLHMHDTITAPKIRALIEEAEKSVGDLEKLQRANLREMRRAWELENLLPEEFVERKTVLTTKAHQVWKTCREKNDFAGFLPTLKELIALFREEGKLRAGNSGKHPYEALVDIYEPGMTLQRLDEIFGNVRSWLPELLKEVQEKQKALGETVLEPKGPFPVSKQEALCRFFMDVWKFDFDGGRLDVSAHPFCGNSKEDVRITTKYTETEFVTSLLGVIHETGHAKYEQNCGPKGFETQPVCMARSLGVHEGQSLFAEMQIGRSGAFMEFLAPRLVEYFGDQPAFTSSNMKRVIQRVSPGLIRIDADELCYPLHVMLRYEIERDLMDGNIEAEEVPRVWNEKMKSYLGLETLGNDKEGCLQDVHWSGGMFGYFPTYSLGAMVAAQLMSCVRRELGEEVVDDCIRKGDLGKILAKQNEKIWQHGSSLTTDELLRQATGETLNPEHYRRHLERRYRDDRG
as §6, with “Compounds selected from primary screening were re-tested in a dose-response manner (final concentration ranging from […] to 62,5 μM) using identical assay conditions. To” for “To”

The mark [3] stands for this setting: single inhibitor concentration 25 µM.
Where [4] appears, read: single inhibitor concentration 31,5 µM.

Consider `CN(CC1CCCO1)S(=O)(=O)c1ccc(C(=O)Nc2nc(-c3ccccn3)cs2)cc1` (stereo not shown) [TCMDC-143551], for which, in assay [1], the midpoint of inhibition, the IC50, lay at 34.5 µM; the “TbMCP-1 Hill Slope” value is listed as -1,562; the “TbMCP-1 2º/1º ratio” value is reported as 0,99. Also, the “TbMCP-1 Primary screening Inhibition (%)” value in assay [1] (setting [3]) is recorded as 42,28%. In addition, the “TbMCP-1 Secondary screening Inhibition (%)” value in assay [1] (setting [4]) is 41,97%. Moreover, in assay [2], the IC50 is 13.8 µM, the “TcMCP-1 Hill Slope” value is -1,834, the “TcMCP-1 2º/1º ratio” value is reported as 1,14 and the “TcMCP-1 Secondary screening Inhibition (%)” value is on record as 74,11%. The “TcMCP-1 Primary screening Inhibition (%)” value in assay [2] (setting [3]) is on record as 65,04%.
Take `Cl.NS(=O)(=O)c1ccc(Nc2ncc3cccc(OC4CCNCC4)c3n2)cc1` [TCMDC-143382]: in assay [1], inhibition was half-maximal at 22.6 µM (IC50), the “TbMCP-1 Hill Slope” value is -0,7258 and the “TbMCP-1 2º/1º ratio” value was 0,99. Moreover, the “TbMCP-1 Primary screening Inhibition (%)” value in assay [1] (setting [3]) is listed as 57,82%. Further, the “TbMCP-1 Secondary screening Inhibition (%)” value in assay [1] (setting [4]) is 57,14%. In assay [2], the IC50 is 20.6 µM, the “TcMCP-1 Hill Slope” value is given as -0,7277, the “TcMCP-1 2º/1º ratio” value is 1,18 and the “TcMCP-1 Secondary screening Inhibition (%)” value is reported as 63,12%. Further, the “TcMCP-1 Primary screening Inhibition (%)” value in assay [2] (setting [3]) is listed as 53,63%.
With `CCOC(=O)c1cn[nH]c1S(=O)(=O)N1CCC1c1ccccc1` (stereo not shown) [TCMDC-143456], the IC50 in assay [1] is 14.7 µM; in assay [2] (secondary screening, two-fold dilutions 7,5 pM to 62,5 μM, KM/[S] ~ 1, no replicates), no more than 10 µM. In addition, the “TbMCP-1 Hill Slope” value in assay [1] is recorded as -1,247. Further, in assay [1], the “TbMCP-1 2º/1º ratio” value is 1,04. Also, the inhibition at 25 µM in assay [1] (single inhibitor concentration 25 µM, read-out: TbMCP-1 Primary screening Inhibition (%)) worked out at 66.2%; in assay [2] (setting [3]) it was 89.1%. Moreover, the inhibition in assay [1] (setting [4]) came out at 69%; in assay [2] (read-out: TcMCP-1 Secondary screening Inhibition (%)) it was 97.7%. In addition, the “TcMCP-1 Hill Slope” value in assay [2] is -0,9597. The “TcMCP-1 2º/1º ratio” value in assay [2] is given as 1,10.
Take `C[C@@H](Oc1cc(-n2cnc3ccc(O[C@H]4CCNC4)cc32)sc1C(N)=O)c1ccccc1Cl` [TCMDC-143515]: in assay [1], the IC50 is 31.7 µM, the “TbMCP-1 Hill Slope” value is -0,8447 and the “TbMCP-1 2º/1º ratio” value is on record as 1,26. Further, the “TbMCP-1 Primary screening Inhibition (%)” value in assay [1] (setting [3]) was 40,42%. Moreover, in assay [1] (setting [4]), the “TbMCP-1 Secondary screening Inhibition (%)” value was 50,90%. In assay [2], the IC50 was found to be 21.8 µM, the “TcMCP-1 Hill Slope” value is listed as -1,149, the “TcMCP-1 2º/1º ratio” value was 1,02 and the “TcMCP-1 Secondary screening Inhibition (%)” value is given as 55,47%. For the same molecule, in assay [2] (setting [3]), the “TcMCP-1 Primary screening Inhibition (%)” value is listed as 54,26%.
